Data as given in patent publication US20230000950A1, “COMPOSITION COMPRISING GLUCAGON AND GLP-1 AND GIP RECEPTOR DUAL AGONIST AND THERAPEUTIC USE OF SAME” (HANMI PHARM. CO., LTD., priority 2019, published 2023).

T1: human GIP receptor (Homo sapiens, UniProt P48546)
T1 construct: expressed in transfected cells; host or cells: CHO DG44
T1 sequence (P48546 22-466): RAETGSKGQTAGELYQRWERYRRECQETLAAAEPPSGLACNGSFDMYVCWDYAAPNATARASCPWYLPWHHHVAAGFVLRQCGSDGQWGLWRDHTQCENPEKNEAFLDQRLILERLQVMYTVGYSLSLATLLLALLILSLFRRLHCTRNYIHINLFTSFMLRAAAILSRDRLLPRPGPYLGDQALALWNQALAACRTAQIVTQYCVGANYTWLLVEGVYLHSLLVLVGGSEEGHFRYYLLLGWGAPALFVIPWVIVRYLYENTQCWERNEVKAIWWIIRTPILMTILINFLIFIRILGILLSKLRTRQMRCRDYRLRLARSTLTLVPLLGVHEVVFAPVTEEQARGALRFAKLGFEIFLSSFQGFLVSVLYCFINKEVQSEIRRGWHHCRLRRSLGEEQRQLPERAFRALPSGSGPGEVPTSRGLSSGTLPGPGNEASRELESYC

T2: human GIP receptor (human, UniProt P48546 22-466)
T2 sequence (looked up): T1 sequence (P48546 22-466)

B1: tirzepatide (peptide)
peptide: YXEGTFTSDYSIXLDKIAQKAFVQWLIAGGPSSGAPPPS
modifications: not fully specified; X at positions 2 and 13 = 2-methylalanine (Aib); Lys 20 N6-[(22S)-22,42-dicarboxy-10,19,24-trioxo-3,6,12,15-tetraoxa-9,18,23-triazadotetracontan-1-oyl]; C-terminal serinamide

How the values were obtained:
[1] = biological target: T3, human GLP-1 receptor (Homo sapiens, UniProt P43220); assay: cAMP activity of dual agonist in cell line expressing human GLP-1 receptor; type: cell-based; details: EC50 compared with native GLP-1, CHO DG44 cells
T3 construct: expressed in transfected cells; host or cells: CHO DG44
T3 sequence (P43220 24-463): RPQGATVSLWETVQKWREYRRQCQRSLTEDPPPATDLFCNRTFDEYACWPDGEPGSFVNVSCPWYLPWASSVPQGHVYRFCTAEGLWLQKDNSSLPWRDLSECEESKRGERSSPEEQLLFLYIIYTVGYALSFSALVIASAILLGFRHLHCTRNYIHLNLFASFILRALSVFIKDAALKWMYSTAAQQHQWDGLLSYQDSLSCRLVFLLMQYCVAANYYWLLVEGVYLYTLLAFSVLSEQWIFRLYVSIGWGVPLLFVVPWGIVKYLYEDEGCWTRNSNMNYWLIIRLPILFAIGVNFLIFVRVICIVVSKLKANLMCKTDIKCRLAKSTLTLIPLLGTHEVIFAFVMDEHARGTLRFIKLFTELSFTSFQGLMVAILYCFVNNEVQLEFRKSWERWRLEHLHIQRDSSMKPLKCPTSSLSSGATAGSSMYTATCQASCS
Description: (§1) and GIP A recombinant vector was constructed using the expression vector X0GC/dhfr so as to express human GLP-1 receptor and human GIP receptor, then transformed into CHO DG44 cells using lipofectamine, and selectively cultured in a selective medium containing G418 and methotrexate. From this, monoclonal cell lines were selected by limiting dilution. Among these, cell lines showing excellent concentration-dependent cAMP response to GLP-1 and GIP were finally selected.
(§2) In the cell lines expressing human GLP-1 receptor and human GIP receptor produced in Example 6, the activity of the dual agonist synthesized in Example 7 was measured.
(§3) Specifically, the transformed cell lines of Example 6 were subcultured 3 or 4 times a week, and then the subcultured cell lines were seeded in a 384-well plate by 6×10^3 per well and cultured for 24 hours. In HBSS (Hank's balanced salt solution) buffer containing 0.5 mM IBMX (3-isobutyl-1-methylxanthine), 0.1% BSA (bovine serum albumin), and 5 mM HEPES (4-(2-hydroxyethyl)-1-piperazineethanesulfonic acid), native GLP-1 and GIP were suspended at 200 nM and the dual agonist at 1600 nM, and then serially diluted 4-fold 10 times. This was applied to the cAMP assay kit (LANCE cAMP 384 kit, PerkinElmer) and added to each of the cultured cell lines, and then the fluorescence value was measured.

[2] = system: CD-HFD mouse model; assay: CD-HFD (choline-deficient and high-fat, high-cholesterol diet) mouse model of NASH and fibrosis: NAS and liver collagen expression; type: in vivo; details: 6 weeks repeated administration Q2D subcutaneous, vs CD-HFD vehicle control
Description: In order to verify the efficacy on NASH and fibrosis improvement by combined administration of the long-acting glucagon derivative and GLP-1/GIP dual agonist (tirzepatide) according to the present invention prepared in Examples, a CD-HFD (choline-deficient and high-fat, high-cholesterol diet) mouse model was used.
Mice induced by 8-week CD-HFD were divided into a vehicle control group, a long-acting glucagon derivative (1.3 nmol/kg, Q2D, subcutaneous) administration group, a dual agonist (73 nmol/kg, Q2D, subcutaneous) administration group, and a long-acting glucagon derivative and dual agonist combined administration group, and repeated administration was performed for 6 weeks. As a negative control group, a group administered with a vehicle to normal diet mice was used. After 6 weeks of repeated administration, the liver tissue of each mouse was taken as an autopsy, and the efficacy on NASH and fibrosis improvement was evaluated by measuring NAS (NAFLD activity score) through H&E staining and collagen expression through quantitative PCR.
For the statistical processing in all the cases, the vehicle group (control group) and the test groups were compared using one-way ANOVA, and the t-test was used to compare the additional efficacy of the combined administration group with that of the single administration group (* to ** p<0.05 to 0.001 vs. vehicle control group).

[3] = biological target: T1, human GIP receptor; assay: cAMP activity of dual agonist in cell line expressing human GIP receptor; type: cell-based; details: EC50 compared with native GIP, CHO DG44 cells
Description: as §1, §2, §3

[4] = system: high-fat diet-induced obese mouse; assay: High-fat diet-induced obese mice: body weight, fat weight, blood lipids, HOMA-IR, energy metabolism-related gene expression; type: in vivo; details: 21 days, subcutaneous; long-acting glucagon derivative 2.0 nmol/kg once every two days, tirzepatide 20 nmol/kg once every two days, Saxenda 50 nmol/kg twice a day
Experimental: A high-fat diet-induced obese mouse, which was widely used as an obese animal model, was used for this study. The body weight of the mice was about 50 g to 55 g before administration. During the study period, seven mice were housed and had free access to water. The lights were turned off from 6 P.M. to 6 A.M.
The administration was performed by subcutaneous injection in all cases.
The experiment was terminated on the 21st day, the changes in body weight of the mice corresponding to each group were measured every two days during the experiment. After the experiment was terminated, the fat weight, blood lipid levels, HOMA-IR, and energy metabolism-related gene expression in tissues were measured.

[5] = biological target: T2, human GIP receptor; assay: cell-based or functional assay
[6] = biological target: human GLP-1 receptor (human, UniProt P43220 24-463); assay: cell-based or functional assay

Molecule | Relative in vitro activity to native ligand (EC50), GLP-1 receptor [1] | NAS (NAFLD activity score) ([2]; long-acting glucagon derivative 1.3 nmol/kg, dual agonist 73 nmol/kg, H&E staining) | collagen expression in liver tissue ([2]; quantitative PCR) | Relative in vitro activity to native ligand (EC50), GIP receptor [3] | change in body weight compared to before administration [4] | Relative in vitro activity to native ligand (EC50), cAMP assay [5] | Relative in vitro activity to native ligand (EC50), cAMP assay [6]
CC[C@H](C)[C@H](NC(=O)[C@H](CC(C)C)NC(=O)[C@H](Cc1c[nH]c2ccccc12)NC(=O)[C@H](CCC(N)=O)NC(=O)[C@@H](NC(=O)[C@H](Cc1ccccc1)NC(=O)[C@H](C)NC(=O)[C@H](CCCCNC(=O)COCCOCCNC(=O)COCCOCCNC(=O)CC[C@H](NC(=O)CCCCCCCCCCCCCCCCCCC(=O)O)C(=O)O)NC(=O)[C@H](CCC(N)=O)NC(=O)[C@H](C)NC(=O)[C@@H](NC(=O)[C@H](CCCCN)NC(=O)[C@H](CC(=O)O)NC(=O)[C@H](CC(C)C)NC(=O)C(C)(C)NC(=O)[C@@H](NC(=O)[C@H](CO)NC(=O)[C@H](Cc1ccc(O)cc1)NC(=O)[C@H](CC(=O)O)NC(=O)[C@H](CO)NC(=O)[C@@H](NC(=O)[C@H](Cc1ccccc1)NC(=O)[C@@H](NC(=O)CNC(=O)[C@H](CCC(=O)O)NC(=O)C(C)(C)NC(=O)[C@@H](N)Cc1ccc(O)cc1)[C@@H](C)O)[C@@H](C)O)[C@@H](C)CC)[C@@H](C)CC)C(C)C)C(=O)N[C@@H](C)C(=O)NCC(=O)NCC(=O)N1CCC[C@H]1C(=O)N[C@@H](CO)C(=O)N[C@@H](CO)C(=O)NCC(=O)N[C@@H](C)C(=O)N1CCC[C@H]1C(=O)N1CCC[C@H]1C(=O)N1CCC[C@H]1C(=O)N[C@@H](CO)C(N)=O [Dual agonist (tirzepatide)] | 1.3% | significantly reduced | significantly reduced | 6.7% | −19.39% |  | 
B1 |  |  |  |  |  | 6.7% | 1.3%
